Peptide text beside a SMILES is read from it.
Tests used:
[1] = Solubilization test (time for complete dissolution in water); type: physicochemical; details: 250 mg ground sample in 250 ml pure water at 26 ± 2°C, stirred at 350 to 360 rpm, stirring and standing repeated every 30 seconds
Procedure: The present invention will be described in detail in the following examples, in which the solubilization test was carried out by the following procedure: Solubilization Test
Into 250 ml of pure water having a temperature of 26 ± 2°C which was being stirred (at 350 to 360 rpm by a magnetic stirrer) was poured 250 mg of a ground α-APM sample. Stirring and standing were repeated every 30 seconds. The time required for the sample to dissolve completely was measured.

[2] = Solubilization of conventionally recrystallized α-APM in water at room temperature; type: physicochemical; details: 250 mg crushed powder in 250 ml of water at room temperature, stirring and standing alternated every 30 seconds
Description: α-APM purified y conventional recrystallization methods has the disadvantage of poor solubilization (rate of solution) in water.

[3] = widely known property stated in the prior art section; cited from earlier work

time required for the sample to dissolve completely [1]	SMILES	also measured
≤ 5 min	COC(=O)[C@H](Cc1ccccc1)NC(=O)[C@@H](N)CC(=O)O [Example 2, α-L-aspartyl-L-phenylalanien emthyl ester] (H-Asp-Phe-OMe)	
	COC(=O)[C@H](Cc1ccccc1)NC(=O)[C@@H](N)CC(=O)O [α-APM obtained conventionally by recrystallization from a 50] [α-L-aspartyl-L-phenylalanien emthyl ester] (H-Asp-Phe-OMe)	time required to dissolve completely [2]: more than 15 minutes
≤ 5 min	COC(=O)[C@H](Cc1ccccc1)NC(=O)[C@@H](N)CC(=O)O [Example 5, α-L-aspartyl-L-phenylalanien emthyl ester] (H-Asp-Phe-OMe)	
≤ 5 min	COC(=O)[C@H](Cc1ccccc1)NC(=O)[C@@H](N)CC(=O)O [Example 1, α-L-aspartyl-L-phenylalanien emthyl ester] (H-Asp-Phe-OMe)	
	COC(=O)[C@H](Cc1ccccc1)NC(=O)[C@@H](N)CC(=O)O [α-APM, α-L-aspartyl-L-phenylalanien emthyl ester] (H-Asp-Phe-OMe)	degree of sweetness [3]: about 200 times the sweetness of sucrose
25 min	COC(=O)[C@H](Cc1ccccc1)NC(=O)[C@@H](N)CC(=O)O [Comparative Example, α-L-aspartyl-L-phenylalanien emthyl ester, reference compound] (H-Asp-Phe-OMe)	
≤ 5 min	COC(=O)[C@H](Cc1ccccc1)NC(=O)[C@@H](N)CC(=O)O [Example 3, α-L-aspartyl-L-phenylalanien emthyl ester] (H-Asp-Phe-OMe)	
≤ 5 min	COC(=O)[C@H](Cc1ccccc1)NC(=O)[C@@H](N)CC(=O)O [Example 4, α-L-aspartyl-L-phenylalanien emthyl ester] (H-Asp-Phe-OMe)	

Reference: patent EP0405273A2, “Method for producing readily soluble crystalline alfa-L-aspartyl-L-phenylalanine methyl ester” (MITSUI TOATSU CHEMICALS, Inc., priority 1989, dated 1991)
